From patent publication US20260306484A1, “INVERSE AGONISTS OF RAR RELATED ORPHAN RECEPTORS (RORS)” (11949098 CANADA INC. (NUREDCO) c/o Jean I. TCHERVENKOV, priority 2023, published 2026) come the findings set out here.

One assay concerns Balb/c skin grafts. Put plainly: Balb/c skin graft survival in sensitized C57BL/6 recipients (Example 9). It counts as in vivo, mouse (C57BL/6). As to conditions: for median graft survival: daily ip, cpd 13 1 mg/kg, tacrolimus 0.5 mg/kg, or both, ctrl = 6 days, P-value<<0.001, mantel-cox test. As for the experimental part: C57BL/6 mice were sensitized by 3 IP injections of 10 M Balb/c splenocytes at day 0, 7 and 14. The mice were transplanted at day 15 with 1 cm^2 skin grafts from Balb/c mice and treated daily with ip injections of vehicle (ctrl), cpd 13 1 mg/kg (131 mg/kg), tacrolimus 0.5 mg/kg (tacro0.5 mg/kg) and cpd13 1 mg/kg+tacrolimus 0.5 mg/kg (131 mg/kg+tacro0.5 mg/kg). P-value<<0.001, mantel-cox test; median graft survival: ctrl=6 days, tacro0.5 mg/kg=7 days, 131 mg/kg=13.5 days and cpd13 131 mg/kg+tacro0.5 mg/kg=23 days.

Assay [1] deals with Hepa1-6 cells. Put plainly: Hepa1-6 colony formation assay. It counts as cell-based, mouse. The text has this:
(§1) FIG. 32 illustrates another in vitro viability assay Colony Formation Assay. […] HuH-7 and Hepa1-6 colony formation assays.
(§2) FIG. 33 illustrates another in vitro viability assay Colony Formation Assay. […] HuH-7 and Hepa1-6 colony formation assays.

In another assay the test system is breast cancer cell lines. As to the kind of experiment: Cell colony forming units, breast cancer. It is filed as cell-based, human. As to conditions: 5 micromolar.
Assay [2] deals with pancreatic cancer (PDL1 expression). As to the kind of experiment: PDL1 immune checkpoint expression in pancreatic cancer. It counts as cell-based, human. As to conditions: pancreatic cancer (FIG. 19).
The subject of assay [3] is HuH-7 cells. Put plainly: HuH-7 cell viability assay (MTT, GFP). It is filed as cell-based, human. From the text:
(§3) FIG. 30 illustrates in vitro cell viability assay both human HuH-7 and mouse Hepa1-6 cell lines with increasing concentrations of compound 10. In the human cell line you see an effect with as low as 1mMol concentration. HuH-7 and Hepa1-6 cell viability assays.

Assay [4] concerns HuH-7 cells. Put plainly: HuH-7 colony formation assay. It is filed as cell-based, human.
From the text: as §1, §2

Assay [5] has as its system CD4+ cells from in-vitro polarized peripheral blood mononuclear cells. Put plainly: Th17-polarized PBMCs treated 48 h, then PMA/ionomycin and intracellular staining by flow cytometry. As to conditions: 750 nM, PBMCs from 9 individuals, vs vehicle, paired t-test P<0.05. It counts as cell-based, human. As for the experimental part: FIG. 4 illustrates a bar graph represents the % of IL17A+ cells also known as Th17 cells out of CD4+ cells known as Helper T cells. The peripheral blood mononuclear cells from 9 individuals were polarized (in-vitro) using CD3/CD28 dynabeads in presence of TGFβ, IL1B, IL6 and IL23 for 14 days. The cells from each individual was divided into two equal portions and one portion was treated with the Cpd10 at dose of 750 nM and the second portion was treated with the vehicle for 48 hours followed by PMA/ionomycin in presence of transport blocker for 6 hours. Cpd10 decreased the % of IL17A+CD4+ in treated compared to vehicle treated controls and measured by flow cytometry. Paired t-test, significant, P<0.05.
(§4) FIG. 5 illustrates a bar graph represents the % of IL21+ cells which includes all types of CD4+ cells secreting IL21 (e.g. Th17, Tfh). The peripheral blood mononuclear cells from 9 individuals were polarized (in-vitro) using CD3/CD28 dynabeads in presence of TGFβ, IL1β, IL6 and IL23 for 14 days. The cells from each individual was divided into two equal portions and one portion was treated with the Cpd10 at dose of 750 nM and the second portion was treated with the vehicle for 48 hours followed by PMA/ionomycin in presence of transport blocker for 6 hours. Cpd10 decreased the % of IL21+CD4+ in treated compared to vehicle treated controls measured by flow cytometry. Paired t-test Significant P<0.05.
as §4, with “FIG. 6” for “FIG. 5”, “of IL22+” for “of IL21+”, “secreting IL22” for “secreting IL21”, “Th17, Th22).” for “Th17, Tfh).”, “of IL22+CD4+” for “of IL21+CD4+”, “Paired t-test, significant,” for “Paired t-test Significant”
FIG. 7 illustrates a bar graph represents the % RORγt+ cells which includes all types of CD4+ cells expressing RORγt (e.g. Th17). The peripheral blood mononuclear cells from 9 individuals were polarized (in-vitro) using CD3/CD28 dynabeads in presence of TGFβ, IL1β, IL6 and IL23 for 14 days. The cells from each individual was divided into two equal portions and one portion was treated with the Cpd10 at dose of 750 nM and the second portion was treated with the vehicle for 48 hours followed by PMA/ionomycin in presence of transport blocker for 6 hours. Cpd10 increased the % of RORγt+ CD4+ in treated compared to vehicle treated controls measured by flow cytometry. […]
(In general: A flow cytometer gives signals particle by particle.)

Assay [6] concerns Hepa1-6 cells. As to the kind of experiment: Hepa1-6 cell viability assay (MTT, GFP). It counts as cell-based, mouse. Particulars: varying concentrations.
From the text: as §3

Consider `C=CC[C@@H]1/C=C(\C)C[C@H](C)C[C@H](OC)[C@H]2O[C@@](O)(C(=O)C(=O)N3CCCC[C@H]3C(=O)O[C@H](/C(C)=C/[C@@H]3CC[C@@H](O)[C@H](OC)C3)[C@H](C)[C@@H](O)CC1=O)[C@H](C)C[C@@H]2OC` [tacrolimus, reference compound], for which the median graft survival in the assay with Balb/c skin grafts was determined as 7 days.
As for `CN1CCN(CC(=O)Nc2sc3c(c2C(=O)NCc2ccccc2)CCCC3)CC1` [Compound 10, N-benzyl-2-(2-(4-methylpiperazin-1-yl)acetamido)-4,5,6,7-tetrahydrobenzo[b]thiophene-3-carboxamide], in the assay on Hepa1-6 cells [1] (Mus musculus, Hepa1-6, both cell lines suppressed, read-out: concentration at which Hepa1-6 colony formation is suppressed), the minimal effective concentration was found to be 2500 µM. The “Hepa1-6 colony growth ability” value in the assay on Hepa1-6 cells [1] (varying concentrations) is “significant and dose dependent difference”. Besides, in the assay on breast cancer cell lines, the “ability to form colony forming units” value is on record as “significantly reduces”. In addition, in assay [2], the “expression of PDL1” value is “increases that expression”. In the assay on HuH-7 cells [3] (human cell line HuH-7, read-out: lowest concentration with an effect on cell viability), the minimal effective concentration was found to be 1000 µM. In addition, in the assay with HuH-7 cells [3] (varying concentrations), the “HuH-7 cell viability, GFP assay” value was “significant and dose dependent difference”; the “HuH-7 cell viability, MTT assay” value was “significant and dose dependent difference”. Besides, the minimal effective concentration with HuH-7 cells [4] (Homo sapiens, Huh-7, both cell lines suppressed, read-out: concentration at which HuH-7 colony formation is suppressed) amounted to 2500 µM. Also, the “HuH-7 colony growth ability” value with HuH-7 cells [4] (varying concentrations) is “significant and dose dependent difference”. Moreover, in assay [5], the “% of IL17A+ cells (Th17) out of CD4+ cells” value is on record as “decreased”, the “% of IL21+CD4+ cells” value is given as “decreased”, the “% of IL22+CD4+ cells” value is “decreased” and the “% of RORγt+ CD4+ cells” value was “increased”. In the assay on Hepa1-6 cells [6], the “Hepa1-6 cell viability, GFP assay” value is “significant and dose dependent difference”; the “Hepa1-6 cell viability, MTT assay” value is “significant and dose dependent difference”.
With `C[C@@H]1CCN(C(=O)c2c(NC(=O)c3cccnc3)sc3c2CCCC3)[C@H](C)C1` [Compound 13, N-(3-((2R,4R)-2,4-dimethylpiperidine-1-carbonyl)-4,5,6,7-tetrahydrobenzo[b]thiophen-2-yl) nicotinamide], the median graft survival in the assay with Balb/c skin grafts amounted to 13.5 days. The “skin graft survival increase” value in the assay with Balb/c skin grafts (increase survival from 1 up to 3 weeks (FIG. 50)) is “up to 3 weeks”.
